Source: patent publication US8263590B2, “Pyrimidine derivatives” (priority 2003, dated 2012)
pIC50: −log10 of the molar value. Where two headings read alike, the source gives them in different places.

How the values were obtained:
[1] = system: Jurkat T human leukemic cell line; assay: In vitro T cell migration assay; type: cell-based
Experimental: Inhibitory activities of FAK inhibitors on the mobility of immune cells are secured by the following in vitro study. […] Cell mobility is appraised through the number of cells migrated into lower chamber by labeling with calcein-AM (Molecular Probes, Netherlands) at 8 μg/ml in HBSS for 1 h.

[2] = system: Mouse mammary carcinoma 4T1 cells; assay: Anchorage-independent tumor cell growth assay; type: cell-based
Experimental: Cells are cultured for 2 h and inhibitors are added at various concentrations in a final concentration of 0.1% DMSO. After 48 h, cell growth is assayed with the cell counting kit-8 (Wako Pure Chemical), which uses a water soluble tetrazolium salt WST8. Twenty μL of the reagent is added into each well and cells are further cultured for 2 h. The optical density is measured at 450 nm.

human IGF-IR = molecular target: T1, human IGF-IR (Homo sapiens, UniProt P08069); assay: IGF-I induced IGF-IR autophosphorylation, cellular Capture ELISA; type: cell-based; conditions: read-out: IGF-1R IC50
T1 construct: transfected with human IGF-IR cDNA (complete human IGF-IR cDNA); expressed in transfected cells; host or cells: NIH-3T3 mouse fibroblasts
T1 sequence (P08069 31-1367): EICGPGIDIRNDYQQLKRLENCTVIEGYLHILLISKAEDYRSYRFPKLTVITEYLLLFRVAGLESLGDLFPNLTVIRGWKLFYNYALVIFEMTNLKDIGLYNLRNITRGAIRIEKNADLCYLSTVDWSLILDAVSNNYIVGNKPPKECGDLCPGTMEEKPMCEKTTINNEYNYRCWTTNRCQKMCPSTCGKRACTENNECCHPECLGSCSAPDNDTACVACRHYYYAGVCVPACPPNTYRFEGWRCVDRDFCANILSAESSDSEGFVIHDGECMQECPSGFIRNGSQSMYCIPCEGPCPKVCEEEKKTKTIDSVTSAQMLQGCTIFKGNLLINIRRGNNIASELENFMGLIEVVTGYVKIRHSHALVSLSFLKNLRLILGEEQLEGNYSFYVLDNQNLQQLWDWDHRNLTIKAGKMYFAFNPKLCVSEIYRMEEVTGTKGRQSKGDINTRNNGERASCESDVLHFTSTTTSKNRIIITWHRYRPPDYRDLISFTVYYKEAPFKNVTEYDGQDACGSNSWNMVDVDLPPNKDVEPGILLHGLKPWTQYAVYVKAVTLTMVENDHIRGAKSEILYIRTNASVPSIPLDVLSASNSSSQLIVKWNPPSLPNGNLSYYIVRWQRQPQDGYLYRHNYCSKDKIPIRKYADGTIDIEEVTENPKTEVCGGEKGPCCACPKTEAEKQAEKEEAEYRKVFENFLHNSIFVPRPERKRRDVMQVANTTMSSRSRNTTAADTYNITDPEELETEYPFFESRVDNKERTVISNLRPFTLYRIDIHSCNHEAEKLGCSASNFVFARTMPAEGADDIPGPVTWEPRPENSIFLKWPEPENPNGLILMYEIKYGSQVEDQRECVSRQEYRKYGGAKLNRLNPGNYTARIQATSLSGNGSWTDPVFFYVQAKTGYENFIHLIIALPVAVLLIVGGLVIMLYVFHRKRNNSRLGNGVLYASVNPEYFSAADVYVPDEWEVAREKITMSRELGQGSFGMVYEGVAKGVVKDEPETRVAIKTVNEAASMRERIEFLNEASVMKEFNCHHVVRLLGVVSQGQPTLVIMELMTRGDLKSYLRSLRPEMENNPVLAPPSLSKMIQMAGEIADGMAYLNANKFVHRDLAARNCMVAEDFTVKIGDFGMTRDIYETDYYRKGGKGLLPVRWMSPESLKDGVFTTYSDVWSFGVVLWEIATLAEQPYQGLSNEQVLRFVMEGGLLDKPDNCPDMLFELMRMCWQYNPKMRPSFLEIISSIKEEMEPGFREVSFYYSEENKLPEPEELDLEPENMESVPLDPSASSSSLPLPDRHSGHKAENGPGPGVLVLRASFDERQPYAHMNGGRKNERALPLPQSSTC
Experimental: In this assay the activity of the compounds of the invention against Insulin-like growth factor I (IGF-I) induced autophosphorylation of the IGF-IR is determined.
The cells which overexpress human IGF-IR are cultured in Dulbecco's minimal essential (DMEM) medium, containing 10% Fetal Calf Serum (FCS). […] On day 3 the medium is discarded and the cells are incubated for 24 h in minimal medium (DMEM, containing 0.5% FCS).
The medium is discarded and the cells are washed twice with PBS/O (=Phosphate-Buffered Saline without CaCl2) and lysed for 15 min on ice with 50 μl/well RIPA-buffer [50 mM Tris.HCl, pH=7.2, 120 mM NaCl, 1 mM EDTA, 6 mM EGTA, 1% NP-40, 20 mM NaF, 1 mM benzamidine, 15 mM sodium pyrophosphate, 1 mM Phenyl methyl sulphonyl fluoride (PMSF) and 0.5 mM Na3VO4] and shaken for 10 min using a 96-well plate shaker (=cellular extracts).
The plates are washed twice with 0.05% (v/v) Tween-20 in Phosphate-Buffered Saline (PBS) and once with nanopure H2O. […] After blocking, the plates are washed once with nanopure H2O.
After incubating the extracts and the secondary antibody for 2 h at 4° C., the extracts are discarded, the plates are washed twice with 0.05% (v/v) Tween-20 in PBS and once with nanopure water.
90 μl/well AP substrate (CDP-Star; obtained from Tropix; Cat. No.: MS100RY) are then added and the plates are incubated for 45 min at RT in the dark, followed by measuring AP activity in a Packard Top Count Microplate Scintillation Counter. The IC50 values for the compounds of formula I are calculated via linear regression analysis using the GraphPad Instat program (GraphPad Software, USA).

FAK (Tyr397) = FAK (Tyr397) (Mus musculus, UniProt P34152); assay: Phosphorylation levels of FAK at Tyr397 (sandwich ELISA, 4T1 cells)
Chain of FAK (Tyr397) (P34152 whole entry, the tested form may be a part): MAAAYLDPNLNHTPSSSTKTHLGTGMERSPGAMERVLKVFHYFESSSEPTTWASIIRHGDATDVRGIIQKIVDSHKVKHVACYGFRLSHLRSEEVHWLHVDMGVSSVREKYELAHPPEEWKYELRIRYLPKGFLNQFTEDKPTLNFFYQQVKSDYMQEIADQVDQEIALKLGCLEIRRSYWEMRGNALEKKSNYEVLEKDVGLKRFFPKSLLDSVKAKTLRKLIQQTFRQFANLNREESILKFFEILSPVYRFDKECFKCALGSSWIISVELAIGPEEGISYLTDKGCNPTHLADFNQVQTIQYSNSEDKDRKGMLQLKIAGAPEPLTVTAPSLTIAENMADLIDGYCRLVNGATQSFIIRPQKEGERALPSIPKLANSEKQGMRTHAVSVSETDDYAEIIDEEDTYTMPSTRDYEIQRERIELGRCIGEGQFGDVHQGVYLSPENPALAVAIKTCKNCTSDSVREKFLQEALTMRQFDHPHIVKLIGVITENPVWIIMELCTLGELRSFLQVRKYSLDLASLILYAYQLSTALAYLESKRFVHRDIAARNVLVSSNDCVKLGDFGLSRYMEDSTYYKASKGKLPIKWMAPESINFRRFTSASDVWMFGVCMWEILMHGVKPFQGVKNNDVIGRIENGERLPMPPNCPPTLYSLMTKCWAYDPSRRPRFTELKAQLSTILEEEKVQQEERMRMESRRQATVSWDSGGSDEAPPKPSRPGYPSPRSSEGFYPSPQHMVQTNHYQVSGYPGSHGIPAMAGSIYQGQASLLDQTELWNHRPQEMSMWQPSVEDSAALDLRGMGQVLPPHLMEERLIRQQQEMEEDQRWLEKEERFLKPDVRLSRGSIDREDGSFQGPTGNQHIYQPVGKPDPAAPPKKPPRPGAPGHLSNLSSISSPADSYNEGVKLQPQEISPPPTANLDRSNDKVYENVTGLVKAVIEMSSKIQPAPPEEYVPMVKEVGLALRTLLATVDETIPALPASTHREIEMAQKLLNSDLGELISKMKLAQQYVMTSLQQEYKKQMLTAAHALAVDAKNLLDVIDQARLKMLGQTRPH
Experimental: Phosphorylation levels of FAK at Tyr397 is quantified by the sandwich ELISA. Mouse mammary carcinoma 4T1 cells (1×10^5) are plated in wells of 96-well culture plates and incubated with or without various concentrations of inhibitors for 1 h in Dulbecco's modified eagle medium containing 0.5% BSA. The medium is removed and cells are lysed in 200 μL 50 mM Tris-HCl, pH 7.4, containing 1% NP-40, 0.25% sodium deoxycholate, 150 mM NaCl, 1 mM EDTA, 1 mM PMSF, 1 mM Na3VO4, 1 mM NaF, 1 μg/mL aprotinin, 1 μg/mL leupeptin and 1 μg/mL pepstatin. […] The concentration of compound causing 50% reduction of phosphorylation level of FAK is determined.

human FAK kinase domain = human FAK kinase domain (Homo sapiens, UniProt Q05397); assay: FAK assay (FRET, Biot-Y397 peptide)
Chain of human FAK kinase domain (Q05397 384-706): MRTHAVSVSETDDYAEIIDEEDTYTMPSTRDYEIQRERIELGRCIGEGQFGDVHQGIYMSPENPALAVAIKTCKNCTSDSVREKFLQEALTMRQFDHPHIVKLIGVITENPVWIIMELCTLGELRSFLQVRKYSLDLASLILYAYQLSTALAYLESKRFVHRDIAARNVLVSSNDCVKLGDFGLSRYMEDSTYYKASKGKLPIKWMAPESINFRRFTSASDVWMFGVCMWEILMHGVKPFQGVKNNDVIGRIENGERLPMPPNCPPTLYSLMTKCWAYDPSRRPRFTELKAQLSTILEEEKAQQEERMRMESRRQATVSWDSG
Experimental: All steps are performed in a 96-well black microtiter plate. […] The enzyme reaction is started by addition of 5 μL of 5 μM ATP in water and the mixture is incubated for 3 hours at 37° C. […] The results are shown as percent inhibition of enzyme activity. […] IC50 values are determined by non-linear curve fit analysis using the OriginPro 6.1 program (OriginLab).

Row | Compound | pIC50 [1] | also measured
1 | CCC(CC)NS(=O)(=O)c1ccccc1Nc1nc(Nc2ccc(OC3CCN(C)CC3)cc2OC)ncc1Cl [Example 23-1] | 6.20 | –
2 | CCC(C)NS(=O)(=O)c1ccccc1Nc1nc(Nc2ccc(N3CCN(C)CC3)cc2OC)ncc1Cl (stereo not shown) [Example 21-1] | – | pIC50 ([2]; Mus musculus, 4T1): 6.72; pIC50 (human IGF-IR): 6.33
3 | CCCS(=O)(=O)c1ccccc1Nc1nc(Nc2ccc(C(=O)N3CCOCC3)cc2OC)ncc1Cl [Example 26-20] | – | pIC50 (FAK (Tyr397)): 6.85; pIC50 (human FAK kinase domain): 8.00; pIC50 (human IGF-IR): 6.31
4 | Cc1cc(N2CCOCC2)ccc1Nc1ncc(Cl)c(Nc2ccccc2S(=O)(=O)C(C)C)n1 [Example 28-6] | – | pIC50 [2]: 6.25
5 | COc1cc(N2CCC[C@H](C(N)=O)C2)ccc1Nc1ncc(Cl)c(Nc2ccccc2S(=O)(=O)C(C)C)n1 [Example 28-27] | 6.30 | –
6 | CCNC(=O)c1ccccc1Nc1nc(Nc2ccc(N3CCOCC3)cc2OC)ncc1Cl [Example 9-1] | 6.22 | –
7 | COc1cc(OC2CCN(C)CC2)ccc1Nc1ncc(Cl)c(Nc2ccccc2S(=O)(=O)C(C)C)n1 [Example 28-19] | – | pIC50 ([2]; Mus musculus, 4T1): 6.85; pIC50 (FAK (Tyr397)): 6.30; pIC50 (human FAK kinase domain): 8.43
8 | CNS(=O)(=O)c1ccccc1Nc1nc(Nc2ccc(N3CCN(C)CC3)cc2OC)ncc1Cl [Example 20-6] | 4.31 | –
9 | CNS(=O)(=O)c1ccccc1Nc1nc(Nc2cc(N3CCN(C(C)=O)CC3)ccc2OC)ncc1Br [Example 3-34] | 6.89 | –
10 | CNS(=O)(=O)c1ccccc1Nc1nc(Nc2ccc(N3CCN(C(C)=O)CC3)cc2OC)ncc1Cl [Example 20-2] | 6.12 | –
11 | CNS(=O)(=O)c1ccccc1Nc1nc(Nc2cccc3c2CCCC3)ncc1Br [Example 3-31] | – | pIC50 [2]: 5.30
12 | CNC(=O)c1cc(N2CCCC2)ccc1Nc1nc(Nc2ccc(N3CCOCC3)cc2OC)ncc1Cl [Example 15-3] | – | pIC50 ([2]; Mus musculus, 4T1): 5.78; pIC50 (FAK (Tyr397)): 5.70; pIC50 (human FAK kinase domain): 7.36
13 | CCCS(=O)(=O)c1ccccc1Nc1nc(Nc2cc(N3CCOCC3)ccc2OC)ncc1Cl [Example 26-17] | 6.59 | –
14 | CNC(=O)c1ccccc1Nc1nc(Nc2cc(F)ccc2OC)ncc1Br [Example 8-3] | – | pIC50 [2]: 6.00
15 | COc1cc(N2CCOCC2)ccc1Nc1ncc(Cl)c(Nc2ccccc2C(=O)N(C)C)n1 [Example 14-1] | 6.55 | –
16 | CNS(=O)(=O)c1ccccc1Nc1nc(Nc2cc(OCCN3CCOCC3)ccc2OC)ncc1Br [Example 3-35] | 6.10 | –
17 | CNC(=O)c1ccccc1Nc1nc(Nc2ccc(N3CCC(NC)C3)cc2OC)ncc1Cl (stereo not shown) [Example 7-12] | 6.51 | –
18 | CNS(=O)(=O)c1ccccc1Nc1nc(Nc2ccc(N3CCC(N4CCCCC4)CC3)cc2OC)ncc1Cl [Example 20-8] | 6.54 | pIC50 ([2]; Mus musculus, 4T1): 7.30; pIC50 (FAK (Tyr397)): 6.77; pIC50 (human FAK kinase domain): 8.17
19 | CCCS(=O)(=O)c1ccccc1Nc1nc(Nc2ccc(N3CCN(C(C)=O)C(C)(C)C3)cc2OC)ncc1Cl [Example 26-11] | 6.30 | –
20 | COc1cc(N2CCN(C)CC2)ccc1Nc1ncc(Cl)c(Nc2ccccc2S(=O)(=O)NC(C)C)n1 [Example 19-5] | 7.15 | pIC50 ([2]; Mus musculus, 4T1): 6.17; pIC50 (human IGF-IR): 6.33
21 | CCC(CC)NS(=O)(=O)c1ccccc1Nc1nc(Nc2ccc(OC3CCN(C)C3)cc2OC)ncc1Cl (stereo not shown) [Example 23-7] | – | pIC50 ([2]; Mus musculus, 4T1): 6.08; pIC50 (FAK (Tyr397)): 5.52; pIC50 (human FAK kinase domain): 8.68
22 | CNC(=O)c1ccccc1Nc1nc(Nc2cc(N3CCOCC3)ccc2OC)ncc1Cl [Example 7-6] | 6.60 | –
23 | CNS(=O)(=O)c1ccccc1Nc1nc(Nc2ccc(N3CCN(C)CC3)cc2OC)ncc1Br [Example 3-39] | 6.00 | –
24 | CNS(=O)(=O)c1ccccc1Nc1nc(Nc2cc(OC3CCN(C)CC3)ccc2OC)ncc1Br [Example 3-76] | 6.15 | –
25 | CNS(=O)(=O)c1ccccc1Nc1nc(Nc2ccc(OC3CCN(C)CC3)cc2OC)ncc1Br [Example 3-33] | 7.05 | –
26 | COc1cc(N2CCOCC2)ccc1Nc1ncc(Cl)c(Nc2ccccc2C(=O)NC(C)C)n1 [Example 14-2] | 6.00 | –

Row | Compound | pIC50 [1] | also measured
27 | CNS(=O)(=O)c1ccccc1Nc1nc(Nc2ccc(N3CCN(C(C)=O)CC3)cc2OC)ncc1Br [Example 3-46] | 6.52 | –
28 | CNS(=O)(=O)c1ccccc1Nc1nc(Nc2ccc(N3CCCC(C(N)=O)C3)cc2OC)ncc1Br (stereo not shown) [Example 3-68] | 6.00 | –
29 | CNC1CCN(c2ccc(Nc3ncc(Cl)c(Nc4ccccc4S(=O)(=O)NC(C)C)n3)c(OC)c2)C1 (stereo not shown) [Example 19-1] | 6.54 | –
30 | CNS(=O)(=O)c1ccccc1Nc1nc(Nc2cc(N(C)C)ccc2OC)ncc1Br [Example 3-64] | 6.68 | –
31 | CC(C)S(=O)(=O)c1ccccc1Nc1nc(Nc2cccc3c2OCC3)ncc1Cl [Example 28-31] | – | pIC50 [2]: 5.97
32 | CNS(=O)(=O)c1ccccc1Nc1nc(Nc2ccc(N3CCOCC3)cc2OC)ncc1Cl [Example 20-1] | 6.60 | –
33 | CNS(=O)(=O)c1ccccc1Nc1nc(Nc2ccc(OC3CCN(C)C3)cc2OC)ncc1Br (stereo not shown) [Example 3-82] | – | pIC50 ([2]; Mus musculus, 4T1): 7.15; pIC50 (FAK (Tyr397)): 6.70; pIC50 (human FAK kinase domain): 8.32
34 | COc1cc(N2CCOCC2)ccc1Nc1ncc(Cl)c(Nc2cccc3c2C(=O)N(C)C3)n1 [Example 12-1, 7-[5-Chloro-2-(2-methoxy-4-morpholin-4-yl-phenylamino)-pyrimidin-4-ylamino]-2-methyl-2,3-dihydro-isoindol-1-one] | 6.66 | –
35 | CCN1CCN(c2ccc(Nc3ncc(Cl)c(Nc4ccccc4S(=O)(=O)C(C)C)n3)c(OC)c2)CC1 [Example 28-12] | – | pIC50 [2]: 6.37
36 | CNC(=O)c1ccccc1Nc1nc(Nc2ccc(N3CCOCC3)cc2OC)ncc1Cl [Example 7A, 2-[5-Chloro-2-(2-methoxy-4-morpholin-4-yl-phenylamino)-pyrimidin-4-ylamino]-N-methyl-benzamide] | 7.40 | –
37 | CCCS(=O)(=O)c1ccccc1Nc1nc(Nc2ccc(N3CCN(C(C)C)CC3)cc2OC)ncc1Cl [Example 26-23] | – | pIC50 [2]: 7.05
38 | COc1cc(N2CCC[C@@H](C(N)=O)C2)ccc1Nc1ncc(Cl)c(Nc2ccccc2S(=O)(=O)C(C)C)n1 [Example 28-28] | 6.00 | –
39 | COc1cc(N2CCC(N3CCOCC3)CC2)ccc1Nc1ncc(Cl)c(Nc2ccccc2S(=O)(=O)C(C)C)n1 [Example 28-13] | 6.54 | –
40 | CCNC(=O)c1ccccc1Nc1nc(Nc2ccc(N3CCC(N4CCCCC4)CC3)cc2OC)ncc1Cl [Example 9-3] | – | pIC50 ([2]; Mus musculus, 4T1): 6.43; pIC50 (FAK (Tyr397)): 7.00; pIC50 (human FAK kinase domain): 7.74
41 | CC(C)NS(=O)(=O)c1ccccc1Nc1nc(Nc2ccc(OC3CCN(C)CC3)cc2F)ncc1Cl [Example 19-28] | 6.52 | –
42 | COc1cc(N2CCC(N(C)C)C2)ccc1Nc1ncc(Cl)c(Nc2ccccc2S(=O)(=O)NC(C)C)n1 (stereo not shown) [Example 19-9] | 6.52 | –
43 | CNS(=O)(=O)c1ccccc1Nc1nc(Nc2ccc(OC3CCN(C)C3)cc2OC)ncc1Cl (stereo not shown) [Example 20-29] | – | pIC50 ([2]; Mus musculus, 4T1): 7.30; pIC50 (FAK (Tyr397)): 6.70; pIC50 (human FAK kinase domain): 8.21; pIC50 (human IGF-IR): 6.51
44 | COc1cc(N2CCOCC2)ccc1Nc1ncc(Cl)c(Nc2ccccc2S(=O)(=O)NC(C)C)n1 [Example 19-8] | 6.54 | –
45 | CCNC(=O)c1ccccc1Nc1nc(Nc2ccc(OC3CCN(C)CC3)cc2OC)ncc1Cl [Example 9-6] | 6.52 | –
46 | CNC(=O)c1ccccc1Nc1nc(Nc2cc(N3CCN(C(C)=O)CC3)ccc2OC)ncc1Cl [Example 7-30] | 6.00 | –
47 | CNS(=O)(=O)c1ccccc1Nc1nc(Nc2cc(N3CCOCC3)ccc2OC)ncc1Br [Example 3-32] | 6.55 | –
48 | COc1cc(N2CCC(O)CC2)ccc1Nc1ncc(Cl)c(Nc2ccccc2S(=O)(=O)C(C)C)n1 [Example 28-16] | 6.22 | –
49 | CCCS(=O)(=O)c1ccccc1Nc1nc(Nc2ccc(N3CCN(C(C)=O)CC3)cc2OC)ncc1Cl [Example 26-2] | 7.05 | –
50 | CCCS(=O)(=O)c1ccccc1Nc1nc(Nc2ccc(N3CCC(O)CC3)cc2OC)ncc1Cl [Example 26-4] | 6.54 | –
51 | CNS(=O)(=O)c1ccccc1Nc1nc(Nc2ccc(-n3ccnc3C)cc2OC)ncc1Br [Example 3-83] | – | pIC50 [2]: 6.49
52 | CNS(=O)(=O)c1ccccc1Nc1nc(Nc2cc(N3CCC(N4CCCCC4)CC3)ccc2OC)ncc1Br [Example 3-69] | 6.24 | –
